Experimental data published in PMC10761696, “Avapritinib-based SAR studies unveil a binding pocket in KIT and PDGFRA” (Nature Communications, 2024).
Where “and” joins values, the source holds several entries; their conditions need not be identical. Identical values can stand only once. Like-named read-outs stand apart in the source and are kept apart here.

How the values were obtained:
[1] = system: MDA-MB-175VII; assay: CellTiter-Glo (CTG) EC50, MDA-MB-175VII breast cancer control cell line; type: cell-based, human; details: Homo sapiens, MDA-MB-175-VII
Description: (§1) Cell line authenticity was confirmed by STR analysis at Eurofins Genomics. All cell lines were tested regularly for mycoplasma contamination using the Mycoplasmacheck Service at Eurofins Genomics. […] Following incubation for 24 h in a humidified atmosphere at 37 °C and 5% CO2, cells were treated with inhibitors in serial dilutions ranging from 30 µM down to 0.1 nM using an Echo650 acoustic liquid handler (Beckman Coulter). Cell viability was analyzed on day 5 using the CellTiter-Glo® assay (Promega) using 500 ms integration time. The obtained data were normalized to the plate positive control (30 µM staurosporine) and negative control (DMSO) and subsequently analyzed and fitted with the Quattro Software Suite (Quattro Research) using a four-parameter logistic model. As quality control, the Z’-factor was calculated from 16 positive and negative control values. Only assay results showing a Z’-factor ≥0.5 were used for further analysis. All experimental points were measured in duplicates for each plate and were independently replicated in at least three plates.

[2] = system: GIST-T1; assay: CellTiter-Glo (CTG) GR50, GIST-T1; details: Homo sapiens
[3] = system: T1-a-5258; assay: CellTiter-Glo (CTG) GR50, T1-a-5258; details: Homo sapiens
[4] = system: T1-T670I; assay: CellTiter-Glo (CTG) GR50, T1-T670I; details: Homo sapiens
[5] = system: SK-LMS-1; assay: CellTiter-Glo (CTG) GR50, SK-LMS-1 control cell line; details: for CTG GR50 SK-LMS-1, single determinations: raw data of Supp. Tab. 2, independent experiments, unit from Supp. Tab. 2; for CTG GR50 SK-LMS-1: mean ± s.d., n = 3, control cell line
[6] = system: T1-V654A; assay: CellTiter-Glo (CTG) GR50, T1-V654A; details: Homo sapiens
[7] = system: ZR-75-1; assay: CellTiter-Glo (CTG) EC50, ZR-75-1 breast cancer control cell line; type: cell-based, human; details: Homo sapiens
Description: as §1

[8] = target: KIT-D816H (Homo sapiens, UniProt P10721, D816H); assay: Activity-based HTRF KinEASE assay, KIT-D816H; type: biochemical
Chain of KIT-D816H (P10721 26-976 D816H): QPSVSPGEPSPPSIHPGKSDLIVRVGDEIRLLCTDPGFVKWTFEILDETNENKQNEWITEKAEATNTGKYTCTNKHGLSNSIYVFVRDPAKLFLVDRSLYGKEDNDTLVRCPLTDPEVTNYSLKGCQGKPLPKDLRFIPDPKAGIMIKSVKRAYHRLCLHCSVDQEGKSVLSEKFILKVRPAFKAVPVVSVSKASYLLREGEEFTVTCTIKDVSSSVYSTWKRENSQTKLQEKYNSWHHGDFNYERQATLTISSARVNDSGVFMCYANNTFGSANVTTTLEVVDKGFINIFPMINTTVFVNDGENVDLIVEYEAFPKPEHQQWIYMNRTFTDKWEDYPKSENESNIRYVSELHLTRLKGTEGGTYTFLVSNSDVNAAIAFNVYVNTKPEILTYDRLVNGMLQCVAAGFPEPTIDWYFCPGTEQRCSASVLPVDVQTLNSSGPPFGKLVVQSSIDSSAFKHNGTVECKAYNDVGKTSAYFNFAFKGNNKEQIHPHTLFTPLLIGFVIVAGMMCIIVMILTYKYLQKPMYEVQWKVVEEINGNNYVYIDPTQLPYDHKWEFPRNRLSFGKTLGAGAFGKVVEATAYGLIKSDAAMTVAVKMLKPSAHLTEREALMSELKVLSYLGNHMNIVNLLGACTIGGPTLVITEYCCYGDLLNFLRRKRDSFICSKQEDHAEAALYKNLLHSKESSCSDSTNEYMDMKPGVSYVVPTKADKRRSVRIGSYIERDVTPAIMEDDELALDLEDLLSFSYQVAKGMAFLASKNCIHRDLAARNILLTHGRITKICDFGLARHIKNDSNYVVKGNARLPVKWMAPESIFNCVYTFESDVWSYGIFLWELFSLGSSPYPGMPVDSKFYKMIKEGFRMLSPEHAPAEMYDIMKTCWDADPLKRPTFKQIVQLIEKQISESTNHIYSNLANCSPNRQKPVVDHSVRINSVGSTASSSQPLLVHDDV

[9] = target: T1, PDGFRA-D842V (Homo sapiens, UniProt P16234, D842V); assay: Activity-based HTRF KinEASE assay, PDGFRA-D842V; type: biochemical
T1 construct: purchased Invitrogen PV4203 (lot #2343231B)
T1 sequence (P16234 24-1089 D842V): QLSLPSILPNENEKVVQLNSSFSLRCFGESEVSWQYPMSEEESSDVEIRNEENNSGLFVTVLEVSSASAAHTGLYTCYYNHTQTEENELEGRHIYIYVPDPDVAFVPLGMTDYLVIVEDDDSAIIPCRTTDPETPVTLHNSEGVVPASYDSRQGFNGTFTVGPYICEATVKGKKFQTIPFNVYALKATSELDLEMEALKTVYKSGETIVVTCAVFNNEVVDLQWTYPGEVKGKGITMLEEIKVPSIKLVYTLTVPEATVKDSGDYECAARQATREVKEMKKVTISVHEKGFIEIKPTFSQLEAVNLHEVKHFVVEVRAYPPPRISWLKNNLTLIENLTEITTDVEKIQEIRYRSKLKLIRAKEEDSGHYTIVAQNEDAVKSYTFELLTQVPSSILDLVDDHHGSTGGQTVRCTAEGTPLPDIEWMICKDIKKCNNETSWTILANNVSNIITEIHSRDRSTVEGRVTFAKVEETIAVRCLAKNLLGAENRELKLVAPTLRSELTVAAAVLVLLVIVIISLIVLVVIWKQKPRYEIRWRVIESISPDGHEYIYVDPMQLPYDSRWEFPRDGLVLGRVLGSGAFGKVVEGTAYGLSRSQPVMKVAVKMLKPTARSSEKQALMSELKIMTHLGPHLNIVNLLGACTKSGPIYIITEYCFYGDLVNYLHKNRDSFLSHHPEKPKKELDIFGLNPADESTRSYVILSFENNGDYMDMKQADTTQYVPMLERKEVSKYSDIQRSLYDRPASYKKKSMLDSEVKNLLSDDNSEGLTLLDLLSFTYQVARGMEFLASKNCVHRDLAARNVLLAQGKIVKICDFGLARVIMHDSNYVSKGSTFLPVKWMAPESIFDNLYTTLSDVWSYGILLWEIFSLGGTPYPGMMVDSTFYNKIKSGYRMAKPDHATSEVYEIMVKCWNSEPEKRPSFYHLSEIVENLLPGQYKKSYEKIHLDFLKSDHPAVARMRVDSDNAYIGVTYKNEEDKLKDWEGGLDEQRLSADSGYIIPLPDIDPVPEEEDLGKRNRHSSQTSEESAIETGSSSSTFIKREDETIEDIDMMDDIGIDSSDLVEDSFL

[10] = system: GIST-48B; assay: CellTiter-Glo (CTG) GR50, GIST-48B control cell line (off-target toxicity); details: ratio of GR50 values; for GIST-48B/D842V: source data sheet
[11] = system: MDR1; assay: MDCKII-MDR1 permeability assay; details: dog; for efflux ratio at 2 h, 10 µM: MDCK-MDR1; for recovery at 2 h, 10 µM: MDCKII-MDR1, assay conc. 10
[12] = MDCKII-MDR1 permeability assay; details: dog; for Papp B→A at 2 h, 10 µM: MDCK-MDR1
[13] = read-out: CTG EC50 MDA-MB-175VII, mean ± s.d., n = 3, control cell line
[14] = read-out: CTG EC50 MDA-MB-175VII, single determinations, raw data of Supp. Tab. 2, independent experiments, unit from Supp. Tab. 2
[15] = GISTT1, read-out: CTG GR50 GIST-T1, single determinations, raw data of Table 1, independent experiments, unit from Table 1
[16] = GISTT1, read-out: KIT CTG GR50 GIST-T1, mean ± s.d., n ≥ 3, GR50 half-maximal growth inhibition rate
[17] = read-out: CTG GR50 T1-a-5258, single determinations, raw data of Supp. Tab. 1, independent experiments, unit from Supp. Tab. 1
[18] = read-out: PDGFRA CTG GR50 T1-a-5258, mean ± s.d., n ≥ 3, triple mutant D842V, G652E, V658A
[19] = read-out: CTG GR50 T1-T670I, single determinations, raw data of Supp. Tab. 1, independent experiments, unit from Supp. Tab. 1
[20] = read-out: KIT CTG GR50 T1-T670I, mean ± s.d., n ≥ 3
[21] = read-out: CTG GR50 T1-V654A, single determinations, raw data of Supp. Tab. 1, independent experiments, unit from Supp. Tab. 1
[22] = read-out: KIT CTG GR50 T1-V654A, mean ± s.d., n ≥ 3 (* n = 2 for ava)
[23] = ZR-75-1, mean ± s.d., n = 3, control cell line, read-out: CTG EC50 ZR-75-1
[24] = ZR-75-1, raw data of Supp. Tab. 2, independent experiments, unit from Supp. Tab. 2, read-out: CTG EC50 ZR-75-1, single determinations
[25] = mean ± s.d., n ≥ 3, ATP at KM (12 µM), read-out: HTRF IC50 KIT-D816H
[26] = raw data of Table 1, independent experiments, unit from Table 1, read-out: HTRF IC50 KIT-D816H, single determinations
[27] = mean ± s.d., n ≥ 3, ATP at KM (14 µM), read-out: HTRF IC50 PDGFRA-D842V
[28] = raw data of Table 1, independent experiments 1-3, unit from Table 1, read-out: HTRF IC50 PDGFRA-D842V, single determinations
[29] = MDCK-MDR1, MDCKII-MDR1 (Papp A→B), at 10 µM, 2 h, 37 °C, unit inferred

## Cn1cc(-c2cc3c(N4CC5(CN(c6ncc(Cc7ccccc7)cn6)C5)C4)ncnn3c2)cn1 [Compound 6]
[1]; [13]
  EC50: ≥ 10000 nM
[1]; [14]
  EC50: ≥ 10000 nM
[2]; [15]
  GI50: ≥ 10000 nM
[2]; [16]
  GI50: ≥ 10000 nM
[3]; [17]
  GI50: 8790 nM
[3]; [18]
  GI50: 9530 ± 650 nM
[4]; [19]
  GI50: ≥ 10000 nM
[4]; [20]
  GI50: ≥ 10000 nM
[5]
  CTG GR50 SK-LMS-1, single determinations: ≥10 µM
[6]; [21]
  GI50: ≥ 10000 nM
[6]; [22]
  GI50: ≥ 10000 nM
[7]; [23]
  EC50: ≥ 10000 nM
[7]; [24]
  EC50: ≥ 10000 nM
[8]; [25]
  IC50: 2160 ± 167 nM
[8]; [26]
  IC50: 2280 nM and 2040 nM
[9]; [27]
  IC50: 7350 ± 884 nM
[9]; [28]
  IC50: 6110 nM and 7810 nM and 8130 nM
[10]
  ratio GIST-48B/ T1-a-D842V: 1
  GIST-48B/D842V: 1

## CN(C)[C@@](C)(c1ccc(F)cc1)c1cnc(N2CCN(c3ncnn4cc(-c5cnn(C)c5)cc34)CC2)nc1 [Compound 8]
[1]; [13]
  EC50: ≥ 10000 nM
[1]; [14]
  EC50: ≥ 10000 nM
[2]; [15]
  GI50: 350 nM
[2]; [16]
  GI50: 254 ± 74 nM
[3]; [17]
  GI50: 1400 nM
[3]; [18]
  GI50: 1660 ± 250 nM
[4]; [19]
  GI50: 2770 nM
[4]; [20]
  GI50: 2560 ± 258 nM
[5]
  CTG GR50 SK-LMS-1: 8.631 ± 2.371 µM and 8.631 µM
  CTG GR50 SK-LMS-1, single determinations: 5.894 µM and 10 µM
[6]; [21]
  GI50: 999 nM
[6]; [22]
  GI50: 1170 ± 264 nM
[7]; [23]
  EC50: ≥ 10000 nM
[7]; [24]
  EC50: ≥ 10000 nM
[8]; [25]
  IC50: 2.3 ± 1.7 nM
[8]; [26]
  IC50: 3.5 nM and 2.4 nM and 1.1 nM
[9]; HTRF IC50, PDGFRA-D842V and KIT-D816H
  fold decrease in potency at the biochemical level compared to avapritinib: 3–5 fold
[9]; [27]
  IC50: 0.4 ± 0.1 nM
[9]; [28]
  IC50: 0.28 nM and 0.38 nM and 0.56 nM
[10]
  ratio GIST-48B/ T1-a-D842V: 33
  GIST-48B/D842V: 33

## CCN[C@@](C)(c1ccc(F)cc1)c1cnc(N2CCN(c3ncnn4cc(-c5cnn(C)c5)cc34)CC2)nc1 [Compound 9]
[1]; [13]
  EC50: ≥ 10000 nM
[1]; [14]
  EC50: ≥ 10000 nM
[2]; [15]
  GI50: 109 nM
[2]; [16]
  GI50: 92 ± 16 nM
[3]; [17]
  GI50: 1160 nM
[3]; [18]
  GI50: 1330 ± 220 nM
[4]; [19]
  GI50: 1330 nM
[4]; [20]
  GI50: 1500 ± 223 nM
[5]
  CTG GR50 SK-LMS-1: 9.041 ± 1.661 µM and 9.041 µM
  CTG GR50 SK-LMS-1, single determinations: 7.123 µM and 10 µM
[6]; [21]
  GI50: 532 nM
[6]; [22]
  GI50: 575 ± 159 nM
[7]; [23]
  EC50: ≥ 10000 nM
[7]; [24]
  EC50: ≥ 10000 nM
[8]; [25]
  IC50: 0.4 ± 0.2 nM
[8]; [26]
  IC50: 0.26 nM and 0.54 nM and 0.27 nM
[9]; [27]
  IC50: < 0.1 nM
[9]; [28]
  IC50: < 0.1 nM
[10]
  ratio GIST-48B/ T1-a-D842V: 155
  GIST-48B/D842V: 155

## CC(=O)N[C@@](C)(c1ccc(F)cc1)c1cnc(N2CCN(c3ncnn4cc(-c5cnn(C)c5)cc34)CC2)nc1 [Compound 10]
[11]
  efflux ratio at 2 h, 10 µM: 0.48
[11]; MDCK-MDR1, Recovery A->B
  recovery at 2 h, 10 µM: 44.1%
[11]; MDCK-MDR1, Recovery B->A
  recovery at 2 h, 10 µM: 48.4%
[12]
  Papp B→A at 2 h, 10 µM: 5.43 ×10⁻⁶ cm/s
[12]; [29]
  Papp A→B at 2 h, 10 µM: 11.3 ×10⁻⁶ cm/s
[12]; MDCK-MDR1, Papp A->B, MDCKII-MDR1, assay conc. 10, apical to basolateral
  Papp A→B at 2 h, 10 µM: 11.3 ×10⁻⁶ cm/s
[1]; [13]
  EC50: ≥ 10000 nM
[1]; [14]
  EC50: ≥ 10000 nM
[2]; [15]
  GI50: 44 nM
[2]; [16]
  GI50: 39 ± 6 nM
[3]; [17]
  GI50: 1570 nM
[3]; [18]
  GI50: 2060 ± 430 nM
[4]; [19]
  GI50: 376 nM
[4]; [20]
  GI50: 386 ± 39 nM
[5]
  CTG GR50 SK-LMS-1: 8.787 ± 2.101 µM and 8.787 µM
  CTG GR50 SK-LMS-1, single determinations: 6.361 µM and 10 µM
[6]; [21]
  GI50: 268 nM
[6]; [22]
  GI50: 293 ± 83 nM
[7]; [23]
  EC50: ≥ 10000 nM
[7]; [24]
  EC50: ≥ 10000 nM
[8]; [25]
  IC50: 0.5 ± 0.1 nM
[8]; [26]
  IC50: 0.38 nM and 0.43 nM and 0.65 nM
[9]; [27]
  IC50: < 0.1 nM
[9]; [28]
  IC50: < 0.1 nM
[10]
  ratio GIST-48B/ T1-a-D842V: 186
  GIST-48B/D842V: 186

## C=CC(=O)N[C@@](C)(c1ccc(F)cc1)c1cnc(N2CCN(c3ncnn4cc(-c5cnn(C)c5)cc34)CC2)nc1 [Compound 11]
[11]
  efflux ratio at 2 h, 10 µM: 0.2
[11]; MDCK-MDR1, Recovery A->B
  recovery at 2 h, 10 µM: 34.2%
[11]; MDCK-MDR1, Recovery B->A
  recovery at 2 h, 10 µM: 38.9%
[12]
  Papp B→A at 2 h, 10 µM: 1.99 ×10⁻⁶ cm/s
[12]; [29]
  Papp A→B at 2 h, 10 µM: 10.1 ×10⁻⁶ cm/s
[1]; [13]
  EC50: ≥ 10000 nM
[1]; [14]
  EC50: ≥ 10000 nM
[2]; [15]
  GI50: 46 nM
[2]; [16]
  GI50: 39 ± 7 nM
[3]; [17]
  GI50: 2970 nM
[3]; [18]
  GI50: 3380 ± 360 nM
[4]; [19]
  GI50: 402 nM
[4]; [20]
  GI50: 413 ± 44 nM
[5]
  CTG GR50 SK-LMS-1: 6.459 ± 3.067 µM and 6.459 µM
[6]; [21]
  GI50: 302 nM
[6]; [22]
  GI50: 347 ± 108 nM
[7]; [23]
  EC50: ≥ 10000 nM
[7]; [24]
  EC50: ≥ 10000 nM
[8]; [25]
  IC50: 0.5 ± 0.2 nM
[8]; [26]
  IC50: 0.7 nM and 0.54 nM and 0.37 nM
[9]; [27]
  IC50: < 0.1 nM
[9]; [28]
  IC50: < 0.1 nM
[10]
  ratio GIST-48B/ T1-a-D842V: 144
  GIST-48B/D842V: 144
